The values that follow come from ChEMBL document CHEMBL5233252, “Single and dual target inhibitors based on Bcl-2: Promising anti-tumor agents for cancer therapy” (Eur J Med Chem, 2020).

Data set [1] addresses T1, Apoptosis regulator Bcl-2 (Homo sapiens, UniProt P10415). The data set can be described thus: Binding affinity to recombinant Bcl-2 (unknown origin) expressed in Escherichia coli BL21 (DE3) cells assessed as dissociation constant by MST analysis.
Data set [2] has as its target T1, Apoptosis regulator Bcl-2. The data set can be described thus: Inhibition of Flu-BakBH3 binding to GST-tagged Bcl-2 (unknown origin) preincubated for 10 mins followed by Flu-BakBH3 addition and measured after 30 mins by competitive fluorescence polarization assay. A general note: In fluorescence polarisation assays a small probe gives low polarisation when free and higher when bound to something large.

Data set [3] deals with T2, Bcl-2-like protein 1 (Homo sapiens, UniProt Q07817). As to the kind of experiment: Binding affinity to recombinant His-tagged human Bcl-xL expressed in Escherichia coli assessed as inhibition constant by SPR analysis.
In a further data set the target is T3, Bcl-2-like protein 2 (Homo sapiens, UniProt Q92843).
T3 sequence (Q92843 whole entry): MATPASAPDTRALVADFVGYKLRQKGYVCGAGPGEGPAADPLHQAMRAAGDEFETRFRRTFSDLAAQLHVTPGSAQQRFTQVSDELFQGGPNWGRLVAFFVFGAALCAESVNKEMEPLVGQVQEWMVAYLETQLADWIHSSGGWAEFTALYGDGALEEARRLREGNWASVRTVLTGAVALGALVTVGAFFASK
The data set can be described thus: Binding affinity to Bcl-w (unknown origin) assessed as inhibition constant by competitive fluorescence polarization assay.

The target in data set [4] is T1, Apoptosis regulator Bcl-2. As to the kind of experiment: Inhibition of Flu-BakBH3 binding to recombinant GST-tagged Bcl-2 (unknown origin) incubated for 30 mins by competitive fluorescence polarization assay.
Data set [5] deals with T1, Apoptosis regulator Bcl-2. As to the kind of experiment: Binding affinity to Bcl-2 (unknown origin) by ELISA analysis. On the technique in general: An ELISA detects its analyte on a solid surface through an enzyme-linked reagent.
Data set [6] has as its target T4, Induced myeloid leukemia cell differentiation protein Mcl-1 (Homo sapiens, UniProt Q07820). The data set can be described thus: Binding affinity to Mcl-1 (unknown origin) assessed as inhibition constant.
The target in data set [7] is T1, Apoptosis regulator Bcl-2. The data set can be described thus: Binding affinity to Bcl-2 (unknown origin) assessed as inhibition constant.
The target in data set [8] is T2, Bcl-2-like protein 1. The data set can be described thus: Binding affinity to Bcl-xL (unknown origin) assessed as inhibition constant.
Data set [9] concerns the target T4, Induced myeloid leukemia cell differentiation protein Mcl-1. The data set can be described thus: Binding affinity to Mcl-1 (unknown origin) assessed as inhibition constant by TR-FRET assay.
In the next data set the test system is RS4-11. The data set can be described thus: Induction of apoptosis in human RS4-11 cells. It is filed as functional, cell-based.
The nature of data set [10]: Half-life in human. The class given is ADME.
A short description of data set [11]: Inhibition of Bcl-2/Mcl-1 in human MCF7 cells. It is filed as cell-based.
Data set [12] concerns the target T1, Apoptosis regulator Bcl-2. The data set can be described thus: Inhibition of Bcl-2 (unknown origin) by ELISA analysis.
The target of data set [13] is T1, Apoptosis regulator Bcl-2. The data set can be described thus: Binding affinity to recombinant His-tagged human Bcl-2 expressed in Escherichia coli assessed as inhibition constant by SPR analysis. For orientation: Surface plasmon resonance follows binding to a sensor surface in real time, without labels.

Where a SMILES comes first, the peptide text is derived from it. Where only a bound is given, the exact number is not on record here.

T1 sequence (P10415 whole entry): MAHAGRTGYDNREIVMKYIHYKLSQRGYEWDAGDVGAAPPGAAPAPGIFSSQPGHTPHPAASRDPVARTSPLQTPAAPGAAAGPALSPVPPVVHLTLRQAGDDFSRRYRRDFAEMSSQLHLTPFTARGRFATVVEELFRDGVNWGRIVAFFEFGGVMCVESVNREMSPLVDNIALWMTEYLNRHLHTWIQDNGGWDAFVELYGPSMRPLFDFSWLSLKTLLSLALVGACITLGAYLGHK
T2 sequence (Q07817 whole entry): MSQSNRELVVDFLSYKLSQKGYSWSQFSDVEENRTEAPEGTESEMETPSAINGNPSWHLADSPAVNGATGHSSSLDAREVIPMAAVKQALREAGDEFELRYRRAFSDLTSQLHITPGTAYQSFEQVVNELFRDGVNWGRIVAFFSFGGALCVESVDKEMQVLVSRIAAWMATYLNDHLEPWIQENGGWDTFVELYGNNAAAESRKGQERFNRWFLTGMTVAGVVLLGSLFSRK
T4 sequence (Q07820 whole entry): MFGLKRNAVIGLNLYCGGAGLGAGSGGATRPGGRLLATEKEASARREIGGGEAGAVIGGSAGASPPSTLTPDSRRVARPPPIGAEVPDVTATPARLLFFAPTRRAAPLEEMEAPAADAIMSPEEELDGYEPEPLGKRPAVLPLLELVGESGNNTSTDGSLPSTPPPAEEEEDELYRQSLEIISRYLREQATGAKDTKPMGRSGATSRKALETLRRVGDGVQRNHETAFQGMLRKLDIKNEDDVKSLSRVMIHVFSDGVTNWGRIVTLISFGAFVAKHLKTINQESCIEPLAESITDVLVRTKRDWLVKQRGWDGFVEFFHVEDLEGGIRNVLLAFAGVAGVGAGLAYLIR

A word on the Kd: it is the concentration at which binding is half-saturated. Turning to `COc1c(O)cc(O)c2c(=O)cc(-c3ccc(O)c(O)c3)oc12`, the dissociation constant (Kd) in data set [1] was found to be 36100 nM.

For orientation: EC50 means the concentration at which the effect is half-maximal. The compound `Cc1cc2c(C(C)C)c(O)c(O)cc2c(O)c1-c1c(C)cc2c(C(C)C)c(O)c(O)cc2c1O` [APOGOSSYPOL] had a 50% effective concentration (EC50) in data set [2] of 2800 nM.

As usually defined, the Ki is the equilibrium dissociation constant of an inhibitor or competing ligand from its target. Consider `CCCCCCCCCCCCCCCC(=O)N[C@H](C(=O)N[C@@H](C)C(=O)N[C@@H](CCC(N)=O)C(=O)N[C@@H](CCC(=O)O)C(=O)N[C@@H](CCCNC(=N)N)C(=O)N[C@@H](CCCNC(=N)N)C(=O)N[C@H](C(=O)NCC(=O)N[C@@H](CC(=O)O)C(=O)N[C@@H](CCC(=O)O)C(=O)N[C@@H](Cc1ccccc1)C(N)=O)[C@@H](C)CC)[C@@H](C)CC` (HELM PEPTIDE1{[CCCCCCCCCCCCCCCC(=O)[*:2]].I.A.Q.E.R.R.I.G.D.E.F.[am]}$$$$V2.0), for which, at Bcl-2-like protein 1 [3], the Ki was 22.2 nM.

Turning to `CC1(C)CCC(c2ccc(Cl)cc2)=C(CN2CCN(c3ccc(C(=O)NS(=O)(=O)c4ccc(N[C@H](CCN5CCOCC5)CSc5ccccc5)c(S(=O)(=O)C(F)(F)F)c4)cc3)CC2)C1` [NAVITOCLAX], the inhibitory constant (Ki) at Bcl-2-like protein 2 was no more than 1 nM.

The IC50 is the concentration needed to halve the response being measured. For `CCOC(=O)C1=C(N)Oc2ccc(Br)cc2C1C(C#N)C(=O)OCC` (stereo not given), the half-inhibitory concentration (IC50) in data set [4] came to 9000 nM.

In turn, `O=[N+]([O-])c1ccccc1Nc1nnc(-c2c[nH]c3ccccc23)o1` yielded an IC50 in [5] of 4270 nM.

For `CC1=C(C2=C(C)C(=O)C3C(C(C)C)=C(O)C(O)=CC3C2=O)C(=O)c2cc(O)c(O)c(C(C)C)c2C1=O` (stereo not given), the Ki came to 25 nM in data set [6], 35 nM in data set [7] and 660 nM on Bcl-2-like protein 1 [8].

Usually half-life stands for the time in which the quantity being followed falls by half. Low values mean rapid decline, high ones slow decline. As to `CC1(C)CCC(CN2CCN(c3ccc(C(=O)NS(=O)(=O)c4ccc(NCC5CCOCC5)c([N+](=O)[O-])c4)c(Oc4cnc5[nH]ccc5c4)c3)CC2)=C(c2ccc(Cl)cc2)C1` [VENETOCLAX], the Ki in [9] is greater than 444 nM. In the data set with RS4-11, this compound returned an EC50 of 3 nM. Further, the half-life in [10] was 26 h.

Consider `CC(C)(C)c1ccc(C(=O)NCCN2C(=O)c3cccc4c(Sc5ccc(Br)cc5)ccc(c34)C2=O)cc1`, for which the concentration for half-maximal inhibition (IC50) in data set [11] turned out to be 7900 nM; in [12], 2110 nM.

Turning to Ac-IAQERRIGDEF-NH2, the inhibition constant Ki in data set [13] came to 9.48 nM.
